Results: PubChem BioAssay (NCI)
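Step 1: Grow cells in 96-well plates. Step 2: Expose to compound for 48 hours at 5 concentrations. Step 3: Interpolate endpoints linearly; if unreached, use highest concentration. Here, GI50 denotes the concentration required for 50% inhibition of growth. Definition used: TGI = concentration required for complete inhibition of growth.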

Assays:
Experiment in all cases: NCI tumour cell line growth inhibition, 48 h
A498 renal = system: A498 renal
HL-60(TB) leukemia = system: HL-60(TB) leukemia
KM20L2 colon = system: KM20L2 colon
LOX IMVI melanoma = system: LOX IMVI melanoma
M14 melanoma = system: M14 melanoma
NCI-H460 lung = system: NCI-H460 lung
SK-MEL-5 melanoma = system: SK-MEL-5 melanoma
SNB-19 CNS = system: SNB-19 CNS
DU-145 prostate = system: DU-145 prostate

Row | Compound | TGI (A498 renal) | TGI (HL-60(TB) leukemia) | TGI (KM20L2 colon) | TGI (LOX IMVI melanoma) | TGI (M14 melanoma) | TGI (NCI-H460 lung) | TGI (SK-MEL-5 melanoma) | TGI (SNB-19 CNS) | GI50 (A498 renal) | GI50 (DU-145 prostate) | TGI (DU-145 prostate) | GI50 (HL-60(TB) leukemia) | GI50 (LOX IMVI melanoma) | GI50 (M14 melanoma) | GI50 (NCI-H460 lung) | GI50 (SK-MEL-5 melanoma) | GI50 (SNB-19 CNS)
1 | CN(C)CCNC(=O)c1cccc2cc3ccc4ccccc4c3nc12 | 0.0693 µM | 0.27 µM | 0.988 µM | 0.256 µM | 0.41 µM | 0.163 µM | 0.358 µM | 0.919 µM | – | – | – | – | – | – | – | – | –
2 | COc1cc(OC)c(/C=C/C(=O)c2c(N)cc(OC)cc2OC)c(OC)c1 | – | > 100 µM | – | > 100 µM | > 100 µM | > 51.2 µM | > 100 µM | > 100 µM | 0.463 µM | 608 nM | > 100 µM | 300 nM | 537 nM | 349 nM | 347 nM | 332 nM | 0.654 µM
3 | C=C(C)[C@@H]1CC[C@]2(C(=O)n3ccnc3)CC[C@]3(C)[C@H](CC[C@@H]4[C@@]5(C)CCCNC(C)(C)[C@@H]5CC[C@]43C)[C@@H]12 | 29.8 µM | 3.47 µM | – | 3.05 µM | 3.1 µM | 3.4 µM | 2.9 µM | 6.12 µM | 10.4 µM | 1780 nM | 3.61 µM | 1550 nM | 1620 nM | 1600 nM | 1760 nM | 1560 nM | 2.54 µM
4 | C=CC(C)(O)CCC1C(=C)C(O)CC2C(C)(C)CCCC12C (configuration not stated) | 33.3 µM | 35.9 µM | – | 38.7 µM | 30 µM | 33.5 µM | 29.5 µM | 35.6 µM | – | – | 37.2 µM | – | – | – | – | – | –
5 | CC/C(=C(/c1ccc(/C=C/C(=O)O)cc1)c1ccc2[nH]ncc2c1)c1ccc(F)cc1Cl | 17.9 µM | 31 µM | – | 39.6 µM | 27.1 µM | 27.7 µM | 21.4 µM | 31.2 µM | 4.75 µM | 14400 nM | 27.6 µM | 9300 nM | 14500 nM | 7840 nM | 10700 nM | 8350 nM | 12.9 µM
6 | CC1(C)N=C(N)N=C(N)N1c1ccc(OCCCCNC(=O)Nc2cccc(S(=O)(=O)F)c2)c(Cl)c1 | > 100 µM | > 100 µM | – | > 100 µM | > 100 µM | 25.3 µM | 23.7 µM | > 100 µM | 14.5 µM | 3830 nM | > 100 µM | 610 nM | 491 nM | 3960 nM | 377 nM | 1110 nM | 2.91 µM
7 | Nc1c(C(=O)Nc2ccccc2O)[n+]([O-])c2ccccc2[n+]1[O-] | > 100 µM | > 100 µM | > 100 µM | – | > 100 µM | > 100 µM | 28.3 µM | > 100 µM | – | – | – | – | – | – | – | – | –
8 | COC(=O)C1=Nc2ccc(F)cc2/C1=C/c1sc(=S)[nH]c1O | 0.942 µM | – | – | > 32.6 µM | > 100 µM | 10.1 µM | 0.745 µM | > 52.9 µM | 0.202 µM | 222 nM | > 36.2 µM | 263 nM | 94.3 nM | 54.3 nM | 80.4 nM | 131 nM | 0.179 µM
9 | CCc1ccc(C2=NN(c3ccc(S(C)(=O)=O)cc3)C(=O)CC2)cc1 | 4.46 µM | 6.35 µM | – | > 100 µM | > 100 µM | 13.1 µM | 11.1 µM | > 100 µM | 0.322 µM | 2670 nM | > 26.8 µM | 1200 nM | 2930 nM | 639 nM | 1280 nM | 1640 nM | 8.82 µM
10 | Cn1cc(NC(=O)c2cc(NC(=O)CCCCCCCC(=O)Nc3cc(C(=O)Nc4cc(C(=O)NCCC(=N)N)n(C)c4)n(C)c3)cn2C)cc1C(=O)NCCC(=N)N | 56.7 µM | 16.3 µM | > 100 µM | 28.8 µM | > 100 µM | 22 µM | 22.3 µM | > 100 µM | – | – | – | – | – | – | – | – | –
11 | CCN(CC)Cc1cc(Nc2cc(C(F)(F)F)c(C#N)c3nc4ccccc4n23)ccc1O | 5.85 µM | 8.37 µM | – | 13.1 µM | 13.9 µM | 10.7 µM | 1.66 µM | 36.2 µM | 1.44 µM | 2780 nM | 15.7 µM | 2960 nM | 2330 nM | 2730 nM | 1590 nM | 271 nM | 4.39 µM
12 | O=C(Nc1nc2c(s1)CCc1c-2c(Br)n(Cc2ccccc2)c1Br)c1ccccc1 | 28.9 µM | > 100 µM | – | > 100 µM | > 100 µM | > 100 µM | 11.6 µM | > 100 µM | 4.7 µM | 5190 nM | > 100 µM | 45300 nM | 5530 nM | 9940 nM | 3820 nM | 2170 nM | 7.41 µM
13 | Cc1ccc(NC2=CC(=O)C(=O)c3ccccc32)c(C)c1 | 17.8 µM | 8.06 µM | – | 4.46 µM | 3.26 µM | 7.68 µM | 2.79 µM | 15 µM | 4.69 µM | 1580 nM | 2.93 µM | 2590 nM | 1280 nM | 1780 nM | 2570 nM | 1440 nM | 3.88 µM
14 | CCN(CCNc1ccc(C)c2sc3cc(Cl)ccc3c(=O)c12)CC(C)(C)O | 14.9 µM | 44.7 µM | – | 10.3 µM | 4.01 µM | 5 µM | 3.49 µM | 25.8 µM | 3.47 µM | 13100 nM | 40.6 µM | 12200 nM | 3070 nM | 1950 nM | 2330 nM | 1830 nM | 10.1 µM
15 | CC1=NN(c2nc(N)nc(/C=C\c3ccccc3)n2)C(C)(C)C1 | 20.7 µM | 39.5 µM | – | 15 µM | 23.7 µM | 34.2 µM | 32.3 µM | 42.9 µM | 5.58 µM | 3160 nM | 15.5 µM | 10800 nM | 1990 nM | 9760 nM | 13100 nM | 16000 nM | 20.3 µM
16 | O=c1[nH]c(=O)n(C2CC(O)C(O)C(CO)O2)cc1F (configuration not stated) | > 100 µM | > 100 µM | > 100 µM | > 100 µM | > 100 µM | > 100 µM | – | > 100 µM | – | – | – | – | – | – | – | – | –
